# Experimental data from ChEMBL document CHEMBL5260848, “Recent advancements in the development of bioactive pyrazoline derivatives” (Eur J Med Chem, 2020).
# Experiments:
# [1] = target: Carbonic anhydrase 12 (Homo sapiens, UniProt O43570); test: Inhibition of human CA12
# [2] = target: Carbonic anhydrase 1 (Homo sapiens, UniProt P00915)
# [3] = target: Carbonic anhydrase 2 (Homo sapiens, UniProt P00918)
# [4] = target: Carbonic anhydrase 9 (Homo sapiens, UniProt Q16790); test: Inhibition of human CA9
# [5] = organism: Mus musculus; test: Antidepressant activity in Swiss albino mouse assessed as decrease in immobility time by forced swimming test; type: functional; further: test concentration or dose not given here
# [6] = organism: Mus musculus; test: Antidepressant activity in Swiss albino mouse assessed as decrease in immobility time by tail suspension test; type: functional; further: test concentration or dose not given here
# [7] = tested on: Mycobacterium tuberculosis; test: microbe, parasite or virus in culture; details: H37Rv
# [8] = tested on: HepG2; test: cells; details: Homo sapiens
# [9] = target: Acetylcholinesterase (Homo sapiens, UniProt P22303)
# [10] = tested on: Bordetella bronchiseptica; test: Antibacterial activity against Bordetella bronchiseptica ATCC 4617 by plate dilution method; type: functional
# [11] = Cytotoxicity against human Panel NCI-58 (58 carcinoma cell lines) cells by SRB method; type: functional; details: read-out: LC50 (the source's name)
# [12] = Growth inhibition of human Panel NCI-58 (58 carcinoma cell lines) cells by SRB method; type: functional
# [13] = tested on: Pseudomonas aeruginosa; test: Potency index, ratio of ampicillin MIC to compound MIC for Pseudomonas aeruginosa by agar dilution method; type: functional
# [14] = tested on: Plasmodium falciparum; test: Antimalarial activity against chloroquine-sensitive Plasmodium falciparum NF54 measured after 72 hrs by giemsa staining based analysis; type: functional, organism-based; details: NF54, 72 h
# [15] = tested on: Staphylococcus aureus; test: Antibacterial activity against Staphylococcus aureus ATCC 25923 by plate dilution method; type: functional
# [16] = tested on: Bacillus cereus; test: Antibacterial activity against Bacillus cereus ATCC 9946 by plate dilution method; type: functional
# [17] = tested on: Bacillus subtilis; test: Antibacterial activity against Bacillus subtilis ATCC 6633 by plate dilution method; type: functional
# [18] = tested on: Escherichia coli; test: Antibacterial activity against Escherichia coli ATCC 25922 by plate dilution method; type: functional
# [19] = tested on: Enterococcus faecalis; test: Antibacterial activity against Enterococcus faecalis ATCC 29212 by plate dilution method; type: functional
# [20] = tested on: Staphylococcus epidermidis; test: Antibacterial activity against Staphylococcus epidermidis ATCC 12228 by plate dilution method; type: functional
# [21] = tested on: Klebsiella pneumoniae; test: Antibacterial activity against Klebsiella pneumoniae ATCC 700603 by plate dilution method; type: functional
# [22] = tested on: Proteus vulgaris; test: Antibacterial activity against Proteus vulgaris ATCC 9920 by plate dilution method; type: functional
# [23] = tested on: Pseudomonas aeruginosa; test: Antibacterial activity against Pseudomonas aeruginosa ATCC 27853 by plate dilution method; type: functional
# [24] = tested on: Cryptococcus neoformans; test: Antifungal activity against Cryptococcus neoformans assessed as reduction in microbial growth; type: functional
# [25] = Cytotoxicity against human Panel NCI-58 (58 carcinoma cell lines) cells; type: functional
# [26] = tested on: Candida albicans; test: Antifungal activity against Candida albicans assessed as reduction in microbial growth; type: functional
# [27] = tested on: Escherichia coli; test: Antibacterial activity against Escherichia coli by agar dilution method; type: functional
# [28] = tested on: Bacillus subtilis; test: Antibacterial activity against Bacillus subtilis by agar dilution method; type: functional
# [29] = tested on: Staphylococcus aureus; test: Antibacterial activity against Staphylococcus aureus by agar dilution method; type: functional
# [30] = tested on: Pseudomonas aeruginosa; test: Antibacterial activity against Pseudomonas aeruginosa by agar dilution method; type: functional
# Sequence of Carbonic anhydrase 1 (P00915 whole entry): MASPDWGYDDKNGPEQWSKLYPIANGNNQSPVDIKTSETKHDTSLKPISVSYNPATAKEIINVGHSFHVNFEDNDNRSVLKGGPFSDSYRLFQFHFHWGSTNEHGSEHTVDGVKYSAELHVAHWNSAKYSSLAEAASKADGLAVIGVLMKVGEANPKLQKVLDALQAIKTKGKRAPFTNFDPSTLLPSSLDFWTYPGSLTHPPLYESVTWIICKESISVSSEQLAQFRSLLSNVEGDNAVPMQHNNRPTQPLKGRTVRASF
# Sequence of Acetylcholinesterase (P22303 whole entry): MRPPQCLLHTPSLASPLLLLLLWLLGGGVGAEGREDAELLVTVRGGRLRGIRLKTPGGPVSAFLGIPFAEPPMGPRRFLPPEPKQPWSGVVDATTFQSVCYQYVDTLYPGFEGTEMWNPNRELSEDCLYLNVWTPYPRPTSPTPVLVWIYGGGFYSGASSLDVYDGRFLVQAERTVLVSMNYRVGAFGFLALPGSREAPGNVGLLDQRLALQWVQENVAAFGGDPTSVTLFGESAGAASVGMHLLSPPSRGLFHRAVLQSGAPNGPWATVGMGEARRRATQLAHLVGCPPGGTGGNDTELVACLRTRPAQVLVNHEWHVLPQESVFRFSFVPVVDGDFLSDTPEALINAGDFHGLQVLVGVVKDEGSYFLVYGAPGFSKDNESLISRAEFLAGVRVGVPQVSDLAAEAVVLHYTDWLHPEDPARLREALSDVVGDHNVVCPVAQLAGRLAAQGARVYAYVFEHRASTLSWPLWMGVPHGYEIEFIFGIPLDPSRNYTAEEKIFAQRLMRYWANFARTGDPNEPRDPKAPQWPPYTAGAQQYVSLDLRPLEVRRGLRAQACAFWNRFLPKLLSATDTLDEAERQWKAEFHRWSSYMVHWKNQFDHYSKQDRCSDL
# Sequence of Carbonic anhydrase 12 (O43570 whole entry): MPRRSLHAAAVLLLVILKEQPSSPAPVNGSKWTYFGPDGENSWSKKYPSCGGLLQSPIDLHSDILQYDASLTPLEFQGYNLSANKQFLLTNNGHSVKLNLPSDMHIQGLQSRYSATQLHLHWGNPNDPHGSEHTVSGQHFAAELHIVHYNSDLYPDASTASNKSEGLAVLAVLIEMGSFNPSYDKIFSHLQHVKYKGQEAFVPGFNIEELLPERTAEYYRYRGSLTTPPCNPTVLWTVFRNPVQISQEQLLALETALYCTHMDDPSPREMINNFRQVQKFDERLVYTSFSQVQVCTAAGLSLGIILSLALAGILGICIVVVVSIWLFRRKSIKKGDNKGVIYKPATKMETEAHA
smiles,measurement,setting,value
NS(=O)(=O)c1ccc(C(=O)N2N=C(c3ccc(F)cc3)CC2c2ccccc2)cc1 (stereo not drawn),Ki,[1],7.1 nM
same,Ki,[2],87.8 nM
same,Ki,[3],31.7 nM
same,Ki,[4],5.5 nM
COc1ccc(C2CC(c3ccc(-c4cc(F)cc(F)c4)nc3C)=NN2)cc1OC (stereo not drawn),Time,[5],66.67 s
same,Time,[6],70.33 s
same,MIC,[7],12.5 µg/mL
COc1cc(C2CC(c3ccccc3O)=NN2c2cc3ccccc3s2)cc(OC)c1O (stereo not drawn),IC50,[8],3570 nM
Cc1ccc2cc(C3CC(c4cc(Cl)sc4Cl)=NN3)c(Cl)nc2c1 (stereo not drawn),IC50,[9],150 nM
Cc1ccc(C(=O)/C=C/c2ccc(N3CCCCC3)cc2)s1,IC50,[9],130 nM
O=c1oc2ccc(I)cc2cc1-c1csc(N2N=C(c3ccccc3F)CC2c2cc3ccccc3nc2Cl)n1 (stereo not drawn),MIC,[10],50 µg/mL
OCCNc1nc(NCCO)nc(Nc2ccc(C3=NN(c4cc(Cl)cc(Cl)c4)C(c4ccc(C(F)(F)F)cc4)C3)cc2)n1 (stereo not drawn),CC50,[11],5150 nM
same,GI50,[12],569 nM
NNC(=O)c1ccncc1 [ISONIAZID],MIC,[7],6.25 µg/mL
CC(=O)N1N=C(c2nnn(-c3ccc(-n4nnc(C5=NN(C(C)=O)C(c6ccccc6)C5)c4C)cc3)c2C)CC1c1ccccc1 (stereo not drawn),IC50,[8],57.1 µg/mL
O=C(/C=C/c1ccc(N2CCCCC2)cc1)c1sccc1Cl,IC50,[9],160 nM
OCCNc1nc(NCCO)nc(Nc2ccc(C3=NN(c4cc(Cl)cc(Cl)c4)C(c4ccc(Cl)cc4)C3)cc2)n1 (stereo not drawn),CC50,[11],5150 nM
same,GI50,[12],569 nM
Cc1nc(-c2cc(F)cc(F)c2)ccc1C1=NNC(c2c(F)cccc2Cl)C1 (stereo not drawn),Time,[5],66.67 s
same,Time,[6],70.33 s
same,MIC,[7],12.5 µg/mL
NS(=O)(=O)c1ccc(C(=O)N2N=C(c3ccccc3)CC2c2ccc(F)cc2)cc1 (stereo not drawn),Ki,[1],7.1 nM
same,Ki,[2],87.8 nM
same,Ki,[3],31.7 nM
Cc1nc(-c2ccc(Br)cc2)ccc1C1=NNC(c2c(F)cccc2Cl)C1 (stereo not drawn),Time,[5],66.67 s
same,Time,[6],70.33 s
same,MIC,[7],12.5 µg/mL
COc1cccc2cc(C3CC(c4cc(Br)ccc4O)=NN3)c3nnnn3c12 (stereo not drawn),Ratio,[13],2
NS(=O)(=O)c1ccc(C(=O)N2N=C(c3ccc(F)cc3)CC2c2ccc(F)cc2)cc1 (stereo not drawn),Ki,[1],7.1 nM
same,Ki,[2],87.8 nM
same,Ki,[3],31.7 nM
same,Ki,[4],5.5 nM
COc1cc(C)c(/C=C/C(=O)c2cc(OC)c(OC)c(OC)c2)cc1C(C)C,IC50,[14],< 2000 nM
O=c1oc2ccc(F)cc2cc1-c1csc(N2N=C(c3cccc(F)c3)CC2c2cc3ccccc3nc2Cl)n1 (stereo not drawn),MIC,[15],50 µg/mL
same,MIC,[16],50 µg/mL
same,MIC,[17],50 µg/mL
same,MIC,[18],50 µg/mL
same,MIC,[19],50 µg/mL
same,MIC,[20],50 µg/mL
same,MIC,[21],50 µg/mL
same,MIC,[22],50 µg/mL
same,MIC,[23],50 µg/mL
same,MIC,[10],50 µg/mL
COc1cc(C)c(/C=C/C(=O)c2ccc(Br)cc2)cc1C(C)C,IC50,[14],< 2000 nM
Cc1ccc2cc(C3CC(c4sccc4Cl)=NN3)c(Cl)nc2c1 (stereo not drawn),IC50,[9],200 nM
COc1ccc(C2=CC(c3cc(C(C)C)c(OC)cc3C)N(C(=O)OC(C)C)N2C(=O)OC(C)C)cc1OC (stereo not drawn),IC50,[14],< 2000 nM
COc1cc(C2CC(c3ccc(Nc4ccnc5cc(Cl)ccc45)cc3)=NN2c2ccc(Cl)cc2)cc(OC)c1OC (stereo not drawn),MIC50,[24],3.9 µg/mL
same,GI50,[25],< 1000 nM
same,MIC50,[26],3.9 µg/mL
COc1ccc(C2CC(c3cccc(Nc4ccnc5cc(Cl)ccc45)c3)=NN2c2ccc(Cl)cc2)cc1 (stereo not drawn),MIC50,[24],< 3.9 µg/mL
same,MIC,[24]; read-out: MIC100,< 3.9 µg/mL
same,GI50,[25],< 1000 nM
same,MIC50,[26],3.9 µg/mL
Oc1ccc(Br)cc1C1=NOC(c2cc3ccccc3n3nnnc23)C1 (stereo not drawn),MIC,[27],25 µg/mL
same,MIC,[28],25 µg/mL
same,MIC,[29],25 µg/mL
same,MIC,[30],25 µg/mL
O=c1oc2ccc(F)cc2cc1-c1csc(N2N=C(c3ccccc3F)CC2c2cc3ccccc3nc2Cl)n1 (stereo not drawn),MIC,[15],50 µg/mL
same,MIC,[16],50 µg/mL
same,MIC,[17],50 µg/mL
same,MIC,[18],50 µg/mL
same,MIC,[19],50 µg/mL
same,MIC,[20],50 µg/mL
same,MIC,[21],50 µg/mL
same,MIC,[22],50 µg/mL
same,MIC,[23],50 µg/mL
same,MIC,[10],50 µg/mL
COc1cc(C2CC(c3ccc(Nc4nc(NCCO)nc(NCCO)n4)cc3)=NN2c2cc(Cl)cc(Cl)c2)cc(OC)c1OC (stereo not drawn),CC50,[11],5150 nM
same,GI50,[12],569 nM
COc1ccc(C2=NN(C(=O)c3ccc(S(N)(=O)=O)cc3)C(c3ccccc3)C2)c(OC)c1 (stereo not drawn),Ki,[1],7.1 nM
same,Ki,[2],87.8 nM
same,Ki,[3],31.7 nM
same,Ki,[4],5.5 nM
